Test results reported in patent US20250145608A1, “KRAS DEGRADING COMPOUNDS COMPRISING ANNULATED 2-AMINO-3-CYANO THIOPHENES” (Boehringer Ingelheim Int'l GmbH Corp., priority 2021, published 2025).

tested on: GP5d cells; assay: GP5d cell proliferation assay (colorectal cancer, G12D), 5 days; format: cell-based; conditions: Homo sapiens, 120 h
How it was run: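 Cells in DMEM + 10% FCS received logarithmic compound dilutions (DMSO-normalized) and were grown for 5 days. Viability read by CellTiter-Glo luminescence as percent of DMSO controls, with a T0 reading at compound addition; IC50 from a four-parameter logistic fit.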

IC50 [nM]	Structure (SMILES)
766	Cc1ncsc1-c1ccc(CNC(=O)[C@@H]2C[C@@H](O)CN2C(=O)[C@H](c2cc(OCCCN3CCCN(c4nccc(-c5noc([C@@]6(C)CCCc7sc(N)c(C#N)c76)n5)n4)[C@@H](C)C3)no2)C(C)C)cc1 (single isomer, unassigned) [I-24]
3.97	Cc1ncsc1-c1ccc(CNC(=O)[C@@H]2C[C@@H](O)CN2C(=O)[C@@H](c2cc(OCCCN3CCCN(c4nccc(-c5noc([C@@]6(C)CCCc7sc(N)c(C#N)c76)n5)n4)[C@@H](C)C3)no2)C(C)C)cc1 (single isomer, unassigned) [I-25]
4	Cc1ncsc1-c1ccc(CNC(=O)[C@@H]2C[C@@H](O)CN2C(=O)[C@@H](c2cc(OCCCCN3CCCN(c4nccc(-c5noc([C@@]6(C)CCCc7sc(N)c(C#N)c76)n5)n4)[C@@H](C)C3)no2)C(C)C)cc1 (single isomer, unassigned) [I-27]
36.1	Cc1ncsc1-c1ccc(CNC(=O)[C@@H]2C[C@@H](O)CN2C(=O)C(c2cc(OCCCCN3CCCN(c4nccc(-c5cc([C@@]6(C)CCCc7sc(N)c(C#N)c76)on5)n4)[C@@H](C)C3)no2)C(C)C)cc1 (some centres unmarked) [I-4]

tested on: GP2D cells; assay: GP2D proliferation assay (120 h) (colorectal cancer, G12D); format: cell-based; conditions: not given
Method: GP2D Proliferation Assay (120 h) (Colorectal Cancer, G12D)
GP2D cells (ATCC No. CRL-5807) are dispensed into white 384-well plates, flat and white bottom (Perkin Elmer, 6007680) at a density of 500 cells per well in 40 μl DMEM (Sigma, D6429)+1× GlutaMAX (Gibco, 35050038)+10% FCS (fetal calf serum). […] Compounds (10 mM stock in DMSO) are added at logarithmic dose series using the HP Digital Dispenser D300 (Tecan), including DMSO controls and normalizing for added DMSO. For the TO time point measurement, untreated cells are analyzed at the time of compound addition. Plates are incubated for 120 h, and cell viability is measured using CellTiter-Glo luminescent cell viability reagent (Promega product code G7570). Viability (stated as percent of control) is defined as relative luminescence units RLU of each well divided by the RLU of cells in DMSO controls. IC50 values are determined from viability measurements by non-linear regression using a four parameter model.

IC50 [nM]	Structure (SMILES)
5.1	Cc1ncsc1-c1ccc(CNC(=O)[C@@H]2C[C@@H](O)CN2C(=O)[C@@H](c2cc(OCCCCN3CCCN(c4nccc(-c5noc([C@@]6(C)CCCc7sc(N)c(C#N)c76)n5)n4)[C@@H](C)C3)no2)C(C)C)cc1 (single isomer, unassigned) [I-27]
7.7	Cc1ncsc1-c1ccc([C@@H](NC(=O)[C@@H]2C[C@@H](O)CN2C(=O)[C@H](C(C)C)n2cc(OCCCCN3CCCN(c4nccc(-c5noc([C@@]6(C)CCCc7sc(N)c(C#N)c76)n5)n4)[C@@H](C)C3)nn2)[C@H](C)O)cc1 (single isomer, unassigned) [I-41]
6.6	Cc1ncsc1-c1ccc([C@@H](NC(=O)[C@@H]2C[C@@H](O)CN2C(=O)[C@H](C(C)C)n2cc(OCCCN3CCCN(c4nccc(-c5noc([C@@]6(C)CCCc7sc(N)c(C#N)c76)n5)n4)[C@@H](C)C3)nn2)[C@H](O)C(C)C)cc1 (single isomer, unassigned) [I-43]
9.4	Cc1ncsc1-c1ccc([C@@H](NC(=O)[C@@H]2C[C@@H](O)CN2C(=O)[C@H](C(C)C)n2cc(OCCCCN3CCCN(c4nccc(-c5noc([C@@]6(C)CCCc7sc(N)c(C#N)c76)n5)n4)[C@@H](C)C3)nn2)[C@H](O)C(C)C)cc1 (single isomer, unassigned) [I-45]
33.3	CC(C)C(C(=O)N1C[C@H](O)C[C@H]1C(=O)NCc1ccc(C#N)cc1)c1cc(OCCCCN2CCCN(c3nccc(-c4noc([C@@]5(C)CCCc6sc(N)c(C#N)c65)n4)n3)[C@@H](C)C2)no1 (some centres unmarked) [I-16]
2.9	Cc1ncsc1-c1ccc([C@H](C)NC(=O)[C@@H]2C[C@@H](O)CN2C(=O)C(C(C)C)n2cc(OCCCCN3CCCN(c4nccc(-c5noc([C@@]6(C)CCCc7sc(N)c(C#N)c76)n5)n4)[C@@H](C)C3)nn2)cc1 (some centres unmarked) [I-28]
8.5	Cc1ncsc1-c1ccc([C@H](CO)NC(=O)[C@@H]2C[C@@H](O)CN2C(=O)[C@H](C(C)C)n2cc(OCCCCN3CCCN(c4nccc(-c5noc([C@@]6(C)CCCc7sc(N)c(C#N)c76)n5)n4)[C@@H](C)C3)nn2)cc1 [I-29]
6.4	Cc1ncsc1-c1ccc([C@H](CO)NC(=O)[C@@H]2C[C@@H](O)CN2C(=O)[C@H](C(C)C)n2cc(OCCCC(C)N3CCCN(c4nccc(-c5noc([C@@]6(C)CCCc7sc(N)c(C#N)c76)n5)n4)[C@@H](C)C3)nn2)cc1 (some centres unmarked) [I-30]
26.1	Cc1ncsc1-c1ccc([C@H](CO)NC(=O)[C@@H]2C[C@@H](O)CN2C(=O)[C@H](C(C)C)n2cc(OC(C)CCCN3CCCN(c4nccc(-c5noc([C@@]6(C)CCCc7sc(N)c(C#N)c76)n5)n4)[C@@H](C)C3)nn2)cc1 (some centres unmarked) [I-31]
12.6	Cc1ncsc1-c1ccc([C@H](CCO)NC(=O)[C@@H]2C[C@@H](O)CN2C(=O)[C@H](C(C)C)n2cc(OCCCCN3CCCN(c4nccc(-c5noc([C@@]6(C)CCCc7sc(N)c(C#N)c76)n5)n4)[C@@H](C)C3)nn2)cc1 [I-38]
